In patent publication US10479781B2, “Peptidyl nitril compounds as dipeptidyl peptidase I inhibitors” (Prozymex A/S, priority 2015, dated 2019):

Tests used:
[1] = Test for metabolic stability (human liver microsomes); format: in vitro ADME; conditions: pH 7.4; human liver microsomes 1.0 mg/mL, 1 mM NADPH, test compound 5 μM, 37° C.
Method: Test for Metabolic Stability
The test for metabolic stability was performed by Absorption System, Exton, Pa. 19341, USA.
The test compound (DPPI inhibitor) was dissolved in 100% DMSO at a concentration of 10 mM. The reaction mixture, consisted of Mouse or Human Liver Microsomes (1.0 mg/mL), 1 mM NADPH, 100 mM Potassium Phosphate, pH 7.4, 10 mM Magnesium Chloride and test compound at a concentration of 5 μM.
An aliquot of the reaction mixture (without cofactors) was incubated in a shaking water bath at 37° C. for 3 minutes. Another aliquot of the reaction mixture was prepared as the negative control. The test compound was added into both the reaction mixture and the negative control at a final concentration of 5 μM.
The reaction was initiated by the addition of NADPH to 1 mM (not into the negative controls) and then incubated in a shaking water bath at 37° C. Aliquots (100 μL) were withdrawn at 0, 10, 20, 30, and 60 minutes or at 0, 15, 30 and 60 minutes and combined with 900 μL of ice-cold 50/50 acetonitrile/dH2O to terminate the reaction. A control (testosterone) was run simultaneously with the test compound in a separate reaction. […] The elimination half-lives associated with the disappearance of the test and control compounds were determined to compare their relative metabolic stability.

DPPI [2] = target: T1, DPPI (Homo sapiens, UniProt P53634); test: Human DPPI inhibition assay 2; format: biochemical; set-up: purchased UNIZYME Laboratories A/S; conditions: substrate Gly-Phe-paranitroanilide 750 μM, pH 4.5, 37° C.
T1 sequence (P53634 231-394 limits assumed): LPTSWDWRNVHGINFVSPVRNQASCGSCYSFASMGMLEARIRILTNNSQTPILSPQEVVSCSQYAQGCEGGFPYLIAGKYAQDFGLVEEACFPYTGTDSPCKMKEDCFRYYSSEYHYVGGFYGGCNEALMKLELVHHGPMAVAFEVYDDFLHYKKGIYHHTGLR
T1 sequence (P53634 25-134 limits assumed): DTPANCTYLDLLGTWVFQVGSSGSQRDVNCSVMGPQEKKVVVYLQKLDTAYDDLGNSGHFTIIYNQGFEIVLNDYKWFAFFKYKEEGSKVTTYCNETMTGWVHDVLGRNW
T1 sequence (P53634 395-463 limits assumed): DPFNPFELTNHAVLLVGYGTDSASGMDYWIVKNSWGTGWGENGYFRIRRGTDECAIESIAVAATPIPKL
Method: Human DPPI Inhibition Assay 2
Using this assay, the IC50 value of the compound of the invention may be determined using Gly-Phe-paranitroanilide as a DPPI specific substrate.
Assay buffer: 20 mM citric acid (2.1 g citric acid), 150 mM NaCl (4.4 g NaCl) and 2 mM EDTA (370 mg EDTA) was dissolved in 500 mL H2O, and pH was adjusted to 4.5 with HCl.
Substrate: Gly-Phe-paranitroanilide (Sigma Aldrich; Cat. No G0142) was used as the substrate for determination of IC50 values. Km was 2.2 mM. The substrate was solubilized in dimethylformamid to give a 0.2-0.5 M stock solution, which was then further diluted with stirring in assay buffer to a final concentration of 1 mM.
DPPI: Human DPPI (obtained from UNIZYME Laboratories A/S, DK-2970 Hørsholm, Denmark) was stored at −20° C. in a buffer containing 2.5 mM Na-phosphate, 150 mM NaCl, 2 mM cysteamine, 50% glycerol, pH 7.0 at a concentration of 2.2 mg/mL (≈12 μM). This stock solution was diluted 800-3200 times in assay buffer to a concentration of about 4-15 nM.
Assay conditions: The assay was performed in 96-well plates. […] The absorption was measured at 405 nm at 37° C. for every 90 seconds for 12 minutes or every 20 seconds for 4 minutes. […] IC50 was determined using a 4-parameter logistic equation in a non-linear curve fitting routine.

DPPI [3] = target: T1, DPPI; test: Cell based DPPI inhibition assay 2; set-up: endogenous in cells; host or cells: U937 cells; conditions: neutrophil elastase activity in U937 cells grown 48 hours with inhibitor
Method: Cell Based DPPI Inhibition Assay 2
Using the cell based assay described below, the biological activity of the compounds of the invention or other DPPI inhibitors may be determined.
Neutrophil elastase enzymatic activities in U937 cells grown in the presence of DPPI inhibitors were measured by methods modified from Méthot N; Rubin J; Guay D; Beaulieu C; Ethier D; Reddy T J; Riendeau D and Percival M D (2007) J Biol Chem, 282, 20836-20846.
U937 cells were propagated in culture media (RPMI 1640, supplemented with 10% FBS, 10 mM Hepes, 1 mM sodium pyrovate, 100 units/ml of each of penicillin and streptomycin). Cells were seeded in 12-well plates at ≈0.2×10^6 cells/ml in volumes of 1.5 ml per well in the presence of no or increasing concentrations of DPPI inhibitor. 12 points in duplicate in the range of 0.01 nM to 10 μM inhibitor were tested. […]
The activity of neutrophil elastase was determined by measuring the enzymatic release of chromogenic p-nitroaniline from the substrate MetOSuc-Ala-Ala-Pro-Val-pNA, which leads to an increase in absorbance at 405 nm. Assays were carried out in 96-well plates in a final volume of 200 μL at 37° C., and absorbance was measured 8 times during 21 minutes using a plate reader. IC50 was determined using a 4-parameter logistic equation in a non-linear curve fitting routine.

- half-life at 5 μM [1]: > 2 h
- IC50 (DPPI [2]): ~6 nM
- IC50 (DPPI [3]): ~2.5 nM
Compound: CN1CCN(Cc2ccc(-c3ccc(C[C@@H](C#N)NC(=O)C4(N)CCOCC4)c(F)c3)cc2)CC1 [PZ1101, (S)-4-amino-N-(1-cyano-2-(3-fluoro-4′-((4-methylpiperazin-1-yl)methyl)-[1,1′-biphenyl]-4-yl)ethyl)tetrahydro-2H-pyran-4-carboxamide]
